Measured values: patent US20160139120A1 (The Trustees of Columbia University in the City of New York, priority 2013, published 2016)

Tests used:
RAGE-C1q binding = molecular target: T1, RAGE-C1q binding (Homo sapiens, UniProt P02745+P02746+P02747); test: ELISA-like C1q-sRAGE binding assay in presence of test substance; settings: for ability of known RAGE ligands to block C1q binding to immobilized sRAGE: data not shown; for effect on C1q binding to immobilized sRAGE (RAGE-C1q interaction): 0-2 mM compound with 2 μg/ml C1q, 2 h
T1 construct: Three forms of human sRAGE, the extracellular domain of the receptor, were utilized; made in house; host or cells: Sf9 insect cells (baculovirus)
T1 sequence (P02745 23-245): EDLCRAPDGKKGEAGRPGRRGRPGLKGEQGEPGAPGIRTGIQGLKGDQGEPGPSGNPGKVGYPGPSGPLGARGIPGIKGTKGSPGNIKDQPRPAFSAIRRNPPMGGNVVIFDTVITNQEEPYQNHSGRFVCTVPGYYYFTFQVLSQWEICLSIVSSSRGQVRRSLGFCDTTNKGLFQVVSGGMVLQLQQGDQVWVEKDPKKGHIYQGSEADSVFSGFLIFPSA
T1 sequence (P02746 28-253): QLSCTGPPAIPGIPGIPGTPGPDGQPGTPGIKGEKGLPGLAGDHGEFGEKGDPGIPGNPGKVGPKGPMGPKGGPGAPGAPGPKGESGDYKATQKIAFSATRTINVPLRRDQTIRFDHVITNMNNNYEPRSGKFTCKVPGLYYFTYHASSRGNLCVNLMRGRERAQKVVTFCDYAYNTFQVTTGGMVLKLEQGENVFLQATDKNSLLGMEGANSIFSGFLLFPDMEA
T1 sequence (P02747 29-245): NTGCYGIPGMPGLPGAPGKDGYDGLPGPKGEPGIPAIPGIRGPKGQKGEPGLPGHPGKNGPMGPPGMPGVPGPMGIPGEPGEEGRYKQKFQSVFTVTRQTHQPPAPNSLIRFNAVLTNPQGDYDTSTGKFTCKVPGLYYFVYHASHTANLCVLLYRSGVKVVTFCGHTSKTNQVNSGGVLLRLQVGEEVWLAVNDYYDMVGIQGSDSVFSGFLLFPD
Description: “+” and “−” in (B) and (C) indicate whether the C1q was preincubated with monoclonal antibody or not, respectively. Results in (B) and (C) were mean±SD of three independent experiments. *p<0.01 in pair comparison indicated in the graph.
The final peroxidase activity was monitored at 492 nm with o-phenylenediamine dihydrochloride and hydrogen peroxide as substrates. […] Remaining binding sites were blocked with 5% non-fat milk in PBS. […] ECL Western blot detection kit was used to visualize the binding.

U-937 cells = test: Cytotoxicity and activation/differentiation test on U-937 cells; type: cell-based, human
Description: Phenolphthalein bisphosphate has been used in bacteria culture media as phosphatase substrate. […] Phagocytes are major protective cells in the body by ingesting harmful foreign particles, bacteria, and dead or dying cells. In an in vivo abdominal sepsis model caused by intraperitoneally injection with Escherichia coli, RAGE was involved in defense against the growth and/or dissemination of E. coli (The Journal of Infectious Diseases 2009, 200:765-773). In the presence of RAGE, E. coli numbers were much lower in the injection site as well as in major organs of the mouse. With the help of phenolphthalein bisphosphate, we expect that RAGE's function in this sepsis model could be enhanced further.

complement system = test: Complement activation assay (C3a formation in human serum); type: biochemical
Description: Complement activation was monitored as C3a formation from proteolytic cleavage of C3 by ELISA kit.
C3a was assayed by ELISA kit.
Two different forms of each protein were tested, one was immobilized and the other was free molecule in serum (dissolved). For immobilized forms, 96-well MaxiSorp plate was coated with 50 μg/ml of each protein and blocked with BSA. Complement activation was performed as in (A).
After 1 h incubation, C3a levels in the human serum were determined as a marker of complement activation with human C3a EIA kit according to the manufacturer's instructions.

U937 cells [1] = test: Monocyte adhesion: U937 cells to C1q-coated plate; type: cell-based, human; settings: 2 mM in medium, 24 h
Description: U-937 cells (2×10^5/ml) cultured in RPMI medium containing 10% fetal bovine serum, 100 units/ml of penicillin and 100 μg/ml of streptomycin were incubated with 100 nM of D3 and 2 ng/ml of TGF-β at 37° C. in a 5% CO2 incubator for 24 hours. After washing twice with serum-free RPMI medium, U-937 cells were suspended at concentration of 2×10^5/ml in serum-free RPMI medium containing 0 or 100 μg/ml of chicken anti-human RAGE IgY or 20 μg/ml of F(ab′)2 of mouse anti-human CD11b IgG1. As controls, 100 μg/ml of chicken anti-AGE IgY and 100 μg/ml of mouse IgG1 isotype control were used. […] The cells were cultured for 24 hours, then 50 μl of serum-free RPMI medium containing 15 μM of Calcein AM was added into each well to label U-937 cells with fluorescence for 1 hour. After three gentle washes with Hanks' balanced salt solution, the attached U-937 cells were photographed with regular light and fluorescent light, as shown in panel A. To quantitatively measure cell attachment, the plate was read with fluorescence plate reader with excitation at 485 nm and emission at 530 nm, as shown in panel B. The p value was calculated by student T-test with at least 4 samples for each condition. […]
(A) ARPE-19RAGE cells expressed high level of RAGE protein. Ten micrograms of total proteins from ARPE-19, ARPE-19RAGE and RAGE-transfected C6 cells (C6-RAGE) were analyzed for RAGE expression by Western blot. […]

[2] = test system: RAGE-overexpressing cells; test: Steady state binding of free C1q to RAGE-overexpressing cells; type: cell-based, human; settings: data not shown
Description: RAGE expression was compared with another RAGE over-expressing cell line C6-RAGE, generated from rat astroglial C6 (Taguchi, 2000), with the result shown in FIG. 15A.
FIG. 10E was used (data not shown). […] The results using rat native serum with RAGE-transfected C6 cells produced similarly unremarkable results (results not shown).

U937 cells [3] = test: Phagocytosis of apoptotic Jurkat cells by differentiated U937 cells (FACS); type: cell-based, human; settings: with addition of C1q; basal level 47%
Description: (A) Representative dot-plots of different cell populations separated by FACS after 2 h phagocytosis of apoptotic Jurkat cells: top-left U937 cells without phagocytosis; top-right phagocytic U937 cells labeled with percentage of total U937 population; bottom-right apoptotic Jurkat cells. (B) FACS analysis of phagocytosis of apoptotic Jurkat cells and effect of anti-RAGE and anti-CD11b antibodies. […] Results in (B) and (D) were mean±SD of three independent experiments. *p<0.01 in pair comparison indicated in the graph.
U937 cells (2×10^5/ml) were differentiated in standard medium containing 100 nM of vitamin D3 and 2 ng/ml of TGF-β1 at 37° C. in a 5% CO2 incubator for 2 days, with refreshment of vitamin D3 and TGF-β1 at 24 h. Differentiated U937 cells were harvested and re-suspended in Hank's Balanced Salt Solution (HESS, containing calcium and magnesium) at 2×10^6/ml, and then labeled with 5 μM of CM-DiI at 37° C. for 20 min. Labeling was ended by washing cells three times with HESS. The resulted cells were re-suspended at 4×10^5/ml in phagocytosis buffer (HESS plus 2 mM MgCl2 and 20 mM glutamate, pH 7.0).
To label Jurkat cells with CFSE (carboxyfluorescein succinimidyl ester), Jurkat cells were incubated with 1 μM of CFDA-SE in HESS for 30 min at 37° C. Harvested cells were resuspended (1×10^6/ml) in HESS containing 1 μM of staurosporine and incubated at 37° C. for 6 h. […]

Mac-1 = molecular target: T2, Mac-1 (Homo sapiens, UniProt P05107+P11215); test: Pull-down of sRAGE and C1q by immobilized Mac-1; type: binding; settings: ½ PBS
T2 construct: purchased R&D Systems 4047-AM
T2 sequence (P05107 23-700 limits assumed, other chains not shown): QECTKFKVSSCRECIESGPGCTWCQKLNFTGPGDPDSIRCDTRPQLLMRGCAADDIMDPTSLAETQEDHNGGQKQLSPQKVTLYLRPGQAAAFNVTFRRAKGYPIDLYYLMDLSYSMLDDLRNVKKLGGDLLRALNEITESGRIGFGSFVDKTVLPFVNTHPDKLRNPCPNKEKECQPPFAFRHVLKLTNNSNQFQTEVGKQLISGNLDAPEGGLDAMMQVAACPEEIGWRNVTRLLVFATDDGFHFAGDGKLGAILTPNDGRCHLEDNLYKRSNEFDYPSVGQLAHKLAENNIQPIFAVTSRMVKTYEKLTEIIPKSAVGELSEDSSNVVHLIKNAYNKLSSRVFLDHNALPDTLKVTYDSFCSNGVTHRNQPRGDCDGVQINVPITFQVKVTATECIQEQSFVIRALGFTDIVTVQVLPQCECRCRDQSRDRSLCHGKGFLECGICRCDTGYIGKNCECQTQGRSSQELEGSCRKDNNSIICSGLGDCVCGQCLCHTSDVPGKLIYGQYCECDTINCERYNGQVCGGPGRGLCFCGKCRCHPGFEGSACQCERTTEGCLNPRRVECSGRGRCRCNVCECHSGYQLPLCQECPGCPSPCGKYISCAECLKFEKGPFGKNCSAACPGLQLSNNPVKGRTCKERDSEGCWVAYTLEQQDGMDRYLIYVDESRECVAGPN
Description: The plate was cooled down on ice for 10 min and washed quickly three-times with cold ½ PBS. […] Stripping of Western blot membranes was performed with buffer from Pierce according to the manufacturer's instructions.

Compound: 51003: known RAGE ligand; S100B obtained from Calbiochem [compound 51003]
- ability of known RAGE ligands to block C1q binding to immobilized sRAGE (RAGE-C1q binding): unable to block C1q binding to immobilized sRAGE

Compound: O=C1OC(c2ccc(OP(=O)([O-])[O-])cc2)(c2ccc(OP(=O)([O-])[O-])cc2)c2ccccc21.[Na+].[Na+].[Na+].[Na+] [phenolphthalein bisphosphate, Phenolphthalein bisphosphate tetrasodium salt]
- activation or differentiation of U-937 cells (U-937 cells): couldn't activate or differentiate U-937 cells
- cytotoxicity (U-937 cells; 2 mM): no cytotoxicity
- effect on C1q binding to immobilized sRAGE (RAGE-C1q interaction) (RAGE-C1q binding): Phenolphthalein bisphosphate enhanced RAGE-C1q
- effect on C1q binding to immobilized sRAGE (RAGE-C1q interaction) (RAGE-C1q binding; listed as Phenolphthalein Biphosphate): enhance RAGE-C1q interaction with dose-dependent manor
- effect on complement activation of sRAGE (complement system; 1 mM compound, 2 μg sRAGE in 20 μl fresh human serum): without enhancement on complement activation
- effect of compound on U-937 cells adhesion to C1q-coated plate (U937 cells [1]): significantly increase the adherent U-937 cells
- effect of compound on U-937 cells adhesion to C1q-coated plate (U937 cells [1]; listed as Phenolphthalein bisphosphate): Phenolphthalein bisphosphate increased monocytes

Compound: AGE-BSA: glycated bovine serum albumin
- ability of known RAGE ligands to block C1q binding to immobilized sRAGE (RAGE-C1q binding): unable to block C1q binding to immobilized sRAGE

Compound: Avastin: a humanized IgG1 antibody for VEGF
- complement activation (C3a) activity relative to sRAGE (complement system; at every coating concentration): about 8 times

Compound: C1q: human C1q protein (Quidel); first subcomponent of the C1 complex of the classical complement pathway
- binding of free C1q to cells [2]: did not bind
- phagocytic U937 cells population, of total U937 cells (U937 cells [3]): 66%
- pull-down by immobilized Mac-1, proteins incubated separately (Mac-1): pulled down
- pull-down by immobilized Mac-1, sRAGE and C1q co-incubated (Mac-1): increased

Compound: Mac-1: recombinant form of human Mac-1 (CD11b/CD18), R&D Systems 4047-AM
- complement activation in liquid phase (complement system; protein(s) preincubated in PBS then added to fresh human serum (FIG. 13B)): could not activate the complement system

Compound: amyloid β protein fragment 1-42 [A-beta]
- ability of known RAGE ligands to block C1q binding to immobilized sRAGE (RAGE-C1q binding): unable to block C1q binding to immobilized sRAGE
